Measurements from patent US9675609B2 (priority 2015, dated 2017).
Read-outs that look alike come from different tables or passages of the source.

Experiments:
human tumor xenografts = human tumor xenografts in mice; Pantazis et al.; cited from earlier work
human HT29-colon tumor = details: nude mice; Cao et al. Cancer Research 2009; cited from earlier work
[1] = type: physicochemical; details: PSD of raw powders
human xenografts = test: Raw CZ48 powders in cottonseed oil against 29 human xenografts in nude mice; type: in vivo; details: cancerous mice
From the text: (§1) Raw or native CZ48 powders have been intensively tested against human xenografts grown in nude mice. […] Cmax refers to the peak plasma concentration of the drug after administration.

[2] = PK studies of raw CZ48 cottonseed oil suspension in mice; details: dose 100 mg/kg or higher
From the text: as §1

[3] = PK absorption of CZ48 in dogs; type: in vivo; details: Dog, 400 mg/kg based on API content
From the text: Tmax refers to time to reach Cmax.

[4] = Wall et al. 1969; Giovanella et al. 1991; cited from earlier work
[5] = analyte in blood, source CZ48 composite particles equivalent to 400 mg/kg API, single dose, female healthy mice, CPT is the metabolite

## CC[C@@]1(O)C(=O)OCc2c1cc1n(c2=O)Cc2cc3c([N+](=O)[O-])cccc3nc2-1 [9NC, 9-nitrocamptothecin]
Human tumor xenografts
  times more potent than CPT: 2-3 times

## CC[C@@]1(O)C(=O)OCc2c1cc1n(c2=O)Cc2cc3ccccc3nc2-1 [CPT, 20(S)-camptothecin, reference compound]
[5]
  AUC0-24: 51.7 ng·h/mL
  Cmax: 26.0 ng/mL
  Tmax: 30 min

## CCC(=O)O[C@]1(CC)C(=O)OCc2c1cc1n(c2=O)Cc2cc3ccccc3nc2-1 [CZ48, camptothecin-20-O-propionate hydrate]
Human HT29-colon tumor
  dose needed to achieve the same result (good activity against HT29-colon tumor): 1000 mg/kg
[1]
  D[4,3]: 7.612 μm
  d(0.1): 2.612 μm
  d(0.5): 6.220 μm
  d(0.9): 14.556 μm
Human xenografts
  Cmax minimum requirement for a positive effect: 100 ng/mL
[2]
  Cmax: greater than 100 ng/ml
[3]
  AUC0-24: 38.7 ng·h/mL
  Cmax: 3.4 ng/mL
  Tmax: 240 min
Mouse, 400 mg/kg based on API content
  Tmax: 60 min
[5]
  Tmax: 30 min

## CC[C@@](O)(C(=O)[O-])c1cc2n(c(=O)c1CO)Cc1cc3ccccc3nc1-2.[Na+] [sodium carboxylate salt]
[4]
  potency relative to native camptothecin with closed lactone ring: 10%
